This note sets out measurements from US11584714B2 (priority 2018, dated 2023).

What all share (format): biochemical
Experiment [1] has as its target human α-thrombin (Homo sapiens (Human), UniProt P00734). As to the kind of experiment: Enzymatic assay for thrombin (Boc-VPR-AMC substrate).
For experiment [2], the system named is Lectin Pathway. Nature of the experiment: Lectin pathway activation assay in human serum (mannan-coated ELISA, C3c detection). The following applies: 1% human serum.
In experiment [3] the target is MASP-2 (CCP1-CCP2-SP) (Homo sapiens (Human), UniProt O00187). As to the kind of experiment: biochemical. Conditions: for MASP-2 vs. thrombin selectivity: selectivity for MASP-2 inhibition versus thrombin.
MASP-2 (CCP1-CCP2-SP), sequence (O00187 445-686): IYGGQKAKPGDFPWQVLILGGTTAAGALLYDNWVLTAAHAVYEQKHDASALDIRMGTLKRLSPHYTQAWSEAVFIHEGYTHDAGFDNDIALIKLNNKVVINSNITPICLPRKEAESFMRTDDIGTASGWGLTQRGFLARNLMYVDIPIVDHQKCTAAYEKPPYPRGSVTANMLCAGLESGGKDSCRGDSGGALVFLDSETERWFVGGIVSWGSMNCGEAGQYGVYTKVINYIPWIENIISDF
For experiment [4], the target named is mMASP-2 (Mus musculus (Mouse), UniProt Q91WP0). Nature of the experiment: Enzymatic inhibition of mMASP-2.
mMASP-2, sequence (Q91WP0 20-685): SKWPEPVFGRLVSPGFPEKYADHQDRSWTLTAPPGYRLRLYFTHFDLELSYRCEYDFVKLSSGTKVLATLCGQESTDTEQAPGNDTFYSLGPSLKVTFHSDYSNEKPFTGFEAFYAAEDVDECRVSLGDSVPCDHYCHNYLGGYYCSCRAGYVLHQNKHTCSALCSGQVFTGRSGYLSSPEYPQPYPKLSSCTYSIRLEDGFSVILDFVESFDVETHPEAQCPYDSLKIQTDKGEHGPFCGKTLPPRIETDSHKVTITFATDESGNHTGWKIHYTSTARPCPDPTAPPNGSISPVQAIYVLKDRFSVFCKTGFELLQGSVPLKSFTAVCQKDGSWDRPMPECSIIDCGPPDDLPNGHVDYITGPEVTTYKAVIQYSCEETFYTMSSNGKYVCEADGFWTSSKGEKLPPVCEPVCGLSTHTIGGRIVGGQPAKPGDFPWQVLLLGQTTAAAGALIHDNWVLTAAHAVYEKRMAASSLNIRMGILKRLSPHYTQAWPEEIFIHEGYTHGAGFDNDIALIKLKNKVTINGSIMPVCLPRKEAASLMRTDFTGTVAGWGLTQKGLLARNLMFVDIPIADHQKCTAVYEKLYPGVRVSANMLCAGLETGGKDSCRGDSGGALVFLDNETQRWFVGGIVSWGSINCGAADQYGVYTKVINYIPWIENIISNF

Where a name gives a salt, the structure may show the parent alone. Read-outs that look alike come from different tables or passages of the source. Where only a bound is given, the exact number is not on record here.

For `C[C@H](NC(=O)[C@H]1C[C@@H](c2ccccc2)CCN1)C(=O)NCc1ccc(N)nc1` (stereo in doubt) [compound 1025], in experiment [1] (read-out: Thrombin Ki), the Ki is over 25 µM. This compound returned an IC50 in experiment [2] of 500 to 5000 nM.

For `N=C(N)c1ccc(CNC(=O)[C@@H]2CCN2C(=O)[C@H](N)C2CCCC2)cc1` [compound 1008], the Ki in experiment [1] (read-out: Thrombin Ki) was under 0.5 µM. Further, in experiment [2], the IC50 lay within 5000 to 50000 nM.

In experiment [2], `N=C(N)c1ccc(CNC(=O)[C@@H]2CCN2C(=O)[C@@H](N)C2CCCCC2)cc1` [compound 1018] displayed an IC50 of over 50000 nM.

On to `N=C(N)c1ccc(CNC(=O)[C@@H]2CCN2C(=O)[C@H](N)Cc2ccccc2)cc1` [compound 1023], for which the Ki in experiment [1] (read-out: Thrombin Ki) is under 0.5 µM. Moreover, the IC50 in experiment [2] fell in the range of 5000 to 50000 nM.

Consider `C[C@H](NC(=O)[C@H]1Cc2ccccc2CN1)C(=O)NCc1ccc2c(N)nccc2c1` [compound 1053], for which the IC50 in experiment [2] is 500 to 5000 nM.

`N=C(N)c1ccc(CNC(=O)CNC(=O)[C@H](NCC(=O)O)C2CCCCC2)cc1` [compound 1054] returned an IC50 in experiment [2] of 5000 to 50000 nM.

With `C[C@H](NC(=O)[C@H]1C[C@@H](c2ccccc2)CCN1)C(=O)NCc1cc(Cl)ccc1O` [compound 1078], the Ki in experiment [3] (read-out: MASP-2 Ki) was under 500 nM. The same compound came in with an IC50 in experiment [2] of 500 to 5000 nM.

Regarding `Cc1cccc(C2CCNC(C(=O)N[C@@H](C)C(=O)NCc3ccc(C(=N)N)cc3)C2)c1` (stereo partly drawn) [compound 1098], the inhibition constant Ki in experiment [3] (read-out: MASP-2 Ki) is under 500 nM. This compound yielded an IC50 in experiment [2] of under 50 nM.

In experiment [2], `C[C@H](NC(=O)[C@H](NCC(=O)O)C1Cc2ccccc2C1)C(=O)NCc1ccc(C(=N)N)cc1` [compound 1123] gave an IC50 of 500 to 5000 nM.

As for `CCNC(=O)COc1ccc(Cl)cc1CNC(=O)[C@H](C)NC(=O)[C@H](N)CCc1ccccc1` [compound 1137, (R)-2-Amino-N—((S)-1-((5-chloro-2-(2-(ethylamino)-2-oxoethoxy)benzyl)amino)-1-oxopropan-2-yl)-4-phenylbutanamide], in experiment [2], the IC50 was over 50000 nM.

For `C[C@H](NC(=O)[C@@H](CCc1ccccc1)NCCCc1ccc(O)cc1)C(=O)NCc1ccc(C(=N)N)cc1` [compound 1145], the Ki in experiment [3] (read-out: MASP-2 Ki) was under 500 nM. This compound displayed a 50% inhibitory concentration (IC50) in experiment [2] of 50 to 500 nM.

As to `Cc1nc(N)ccc1CNC(=O)[C@H](C)NC(=O)[C@H]1C[C@H](Cc2cccc3cnccc23)CN1` [compound 1343, (2R,4S)—N—((S)-1-(((6-Amino-2-methylpyridin-3-yl)methyl)amino)-1-oxopropan-2-yl)-4-(isoquinolin-5-ylmethyl)pyrrolidine-2-carboxamide Di-trifluoroacetate salt], the IC50 in experiment [2] lay within 50 to 500 nM.

Turning to `COc1ccc(C[C@@H]2CN[C@@H](C(=O)N[C@@H](C)C(=O)NCc3ccc(N)nc3C)C2)cc1Cl` [compound 1475, (2R,4S)—N—((S)-1-(((6-Amino-2-methylpyridin-3-yl)methyl)amino)-1-oxopropan-2-yl)-4-(3-chloro-4-methoxybenzyl)pyrrolidine-2-carboxamide Di-trifluoroacetate salt], the Ki was under 500 nM in experiment [3] (read-out: MASP-2 Ki), under 500 nM in experiment [4] (read-out: mMASP-2 Ki) and 10 to 25 µM in experiment [1] (Thrombin Ki (μM)). For the same compound, in experiment [3], the “MASP-2 vs. thrombin selectivity” value is “**** (≥100-fold)”.

Turning to `COc1cc2ccccc2cc1C[C@@H]1CN[C@@H](C(=O)N[C@@H](C)C(=O)NCc2ccc(N)nc2C)C1` [compound 1478, (2R,4S)—N—((S)-1-(((6-Amino-2-methylpyridin-3-yl)methyl)amino)-1-oxopropan-2-yl)-4-((3-methoxynaphthalen-2-yl)methyl)pyrrolidine-2-carboxamide Dihydrochloride], the results for the Ki in experiment [3] (read-out: MASP-2 Ki), in experiment [4] (read-out: mMASP-2 Ki) and in experiment [1] (Thrombin Ki (μM)) were under 500 nM, under 500 nM and 10 to 25 µM, respectively. Also, the “MASP-2 vs. thrombin selectivity” value in experiment [3] is on record as “**** (≥100-fold)”.

Consider `Cc1nc(N)ccc1CNC(=O)[C@H](C)NC(=O)[C@H]1C[C@H](Cc2ccc(C)c3ccccc23)CN1` [compound 1479, (2R,4S)—N—((S)-1-(((6-Amino-2-methylpyridin-3-yl)methyl)amino)-1-oxopropan-2-yl)-4-((4-methylnaphthalen-1-yl)methyl)pyrrolidine-2-carboxamide Dihydrochloride], for which the Ki in experiment [3] (read-out: MASP-2 Ki) was under 500 nM; in experiment [4] (read-out: mMASP-2 Ki), under 500 nM; in experiment [1] (Thrombin Ki (μM)) it was 10 to 25 µM. Further, the “MASP-2 vs. thrombin selectivity” value in experiment [3] is listed as “**** (≥100-fold)”.

On to `Cc1nc(N)ccc1CNC(=O)[C@H](C)NC(=O)[C@H]1CC(Cc2ccc(F)cc2)(Cc2ccc(F)cc2)CN1` [compound 1480, (R)—N—((S)-1-(((6-Amino-2-methylpyridin-3-yl)methyl)amino)-1-oxopropan-2-yl)-4,4-bis(4-fluorobenzyl)pyrrolidine-2-carboxamide Di-trifluoroacetate salt], for which the Ki was under 500 nM in experiment [3] (read-out: MASP-2 Ki), 500 to 2500 nM in experiment [4] (read-out: mMASP-2 Ki) and over 25 µM in experiment [1] (read-out: Thrombin Ki). Also, the “MASP-2 vs. thrombin selectivity” value in experiment [3] is on record as “**** (≥100-fold)”.

Regarding `Cc1nc(N)ccc1CNC(=O)[C@H](C)NC(=O)[C@H]1C[C@H](C2(c3ccccc3)CC2)CN1` [compound 1481, (2R,4R)—N—((S)-1-(((6-Amino-2-methylpyridin-3-yl)methyl)amino)-1-oxopropan-2-yl)-4-(1-phenylcyclopropyl)pyrrolidine-2-carboxamide Di-trifluoroacetate salt], the Ki is under 500 nM in experiment [3] (read-out: MASP-2 Ki), under 500 nM in experiment [4] (read-out: mMASP-2 Ki) and 2.5 to 10 µM in experiment [1] (Thrombin Ki (μM)). Besides, the “MASP-2 vs. thrombin selectivity” value in experiment [3] was “**** (≥100-fold)”.

As for `C[C@H](NC(=O)[C@H]1C[C@H](Cc2ccccc2Br)CN1)C(=O)NCc1cnc2c(c1)c(Cl)cn2C` [compound 1482, (2R,4S)-4-(2-bromobenzyl)-N-((S)-1-(((3-chloro-1-methyl-1H-pyrrolo[2,3-b]pyridin-5-yl)methyl)amino)-1-oxopropan-2-yl)pyrrolidine-2-carboxamide Hydrochloride], the inhibition constant (Ki) was under 500 nM in experiment [3] (read-out: MASP-2 Ki), under 500 nM in experiment [4] (read-out: mMASP-2 Ki) and 0.5 to 2.5 µM in experiment [1] (Thrombin Ki (μM)). Moreover, in experiment [3], the “MASP-2 vs. thrombin selectivity” value is “*** (≥25 to <100-fold)”.

`Cc1nc(N)ccc1CNC(=O)[C@H](C)NC(=O)[C@H]1C[C@H](Cc2cc(Br)c(Cl)s2)CN1` [compound 1483, (2R,4R)—N—((S)-1-(((6-Amino-2-methylpyridin-3-yl)methyl)amino)-1-oxopropan-2-yl)-4-((4-bromo-5-chlorothiophen-2-yl)methyl)pyrrolidine-2-carboxamide Di-trifluoroacetate salt]: the Ki was under 500 nM in experiment [3] (read-out: MASP-2 Ki), under 500 nM in experiment [4] (read-out: mMASP-2 Ki) and 10 to 25 µM in experiment [1] (Thrombin Ki (μM)). In experiment [3], the “MASP-2 vs. thrombin selectivity” value is recorded as “**** (≥100-fold)”.

Regarding `C[C@H](NC(=O)[C@H]1C[C@H](Cc2ccc(F)c(Cl)c2)CN1CC(=O)O)C(=O)NCc1cnc2c(c1)c(Cl)cn2C` [compound 1484, 2-((2R,4S)-2-(((S)-1-(((3-Chloro-1-methyl-1H-pyrrolo[2,3-b]pyridin-5-yl)methyl)amino)-1-oxopropan-2-yl)carbamoyl)-4-(3-chloro-4-fluorobenzyl)pyrrolidin-1-yl)acetic acid Trifluoroacetate salt], the inhibition constant Ki in experiment [3] is 500 to 2500 nM; in experiment [4] (read-out: mMASP-2 Ki), 500 to 2500 nM; in experiment [1] (read-out: Thrombin Ki), over 25 µM.

Consider `Cc1cnc(NCCc2ccccc2)c(=O)n1CC(=O)NCc1cc(Cl)ccc1-n1cnnn1` [compound 1489, N-(5-Chloro-2-(1H-tetrazol-1-yl)benzyl)-2-(6-methyl-2-oxo-3-(phenethylamino)pyrazin-1(2H)-yl)acetamide], for which the values for the Ki in experiment [3] (read-out: MASP-2 Ki), in experiment [4] (read-out: mMASP-2 Ki) and in experiment [1] (read-out: Thrombin Ki) were under 500 nM, 500 to 2500 nM and under 0.5 µM, respectively. Further, the “MASP-2 vs. thrombin selectivity” value in experiment [3] is reported as “−− (<1.0-fold)”.

Regarding `C[C@H](NC(=O)[C@H]1C[C@H](c2ccccc2)CN1)C(=O)NCc1cc2c(Br)cncc2[nH]1` [compound 1493, (2R,4R)—N—((S)-1-(((4-Bromo-1H-pyrrolo[2,3-c]pyridin-2-yl)methyl)amino)-1-oxopropan-2-yl)-4-phenylpyrrolidine-2-carboxamide Di-trifluoroacetate salt], the Ki in experiment [3] is 10000 to 25000 nM; in experiment [4] (read-out: mMASP-2 Ki), over 25000 nM; in experiment [1] (Thrombin Ki (μM)), 10 to 25 µM. Besides, the “MASP-2 vs. thrombin selectivity” value in experiment [3] is “* (≥1.0 to <5.0-fold)”.

As for `C[C@H](NC(=O)[C@H]1C[C@H](Cc2ccc(F)c(Cl)c2)CN1)C(=O)NCc1cc2cnccc2[nH]1` [compound 1494, (2R,4S)—N—((S)-1-(((1H-Pyrrolo[3,2-c]pyridin-2-yl)methyl)amino)-1-oxopropan-2-yl)-4-(3-chloro-4-fluorobenzyl)pyrrolidine-2-carboxamide Di-trifluoroacetate salt], the Ki in experiment [3] (read-out: MASP-2 Ki) was under 500 nM; in experiment [4] (read-out: mMASP-2 Ki), under 500 nM; in experiment [1] (Thrombin Ki (μM)), 2.5 to 10 µM. Also, in experiment [3], the “MASP-2 vs. thrombin selectivity” value is recorded as “**** (≥100-fold)”.

As to `C[C@H](NC(=O)[C@H]1C[C@H](c2ccccc2)CN1)C(=O)NCc1cc2ccncc2[nH]1` [compound 1495, (2R,4R)—N—((S)-1-(((1H-Pyrrolo[2,3-c]pyridin-2-yl)methyl)amino)-1-oxopropan-2-yl)-4-phenylpyrrolidine-2-carboxamide Di-trifluoroacetate salt], the Ki was 2500 to 10000 nM in experiment [3] (read-out: MASP-2 Ki), 500 to 2500 nM in experiment [4] and over 25 µM in experiment [1] (read-out: Thrombin Ki). For the same compound, in experiment [3], the “MASP-2 vs. thrombin selectivity” value is listed as “** (≥5.0 to <25-fold)”.

With `CCN1CC[C@H](c2ccccc2)C[C@@H]1C(=O)N[C@@H](C)C(=O)NCc1ccc(N)nc1C` [compound 1496, (2R,4S)—N—((S)-1-(((6-Amino-2-methylpyridin-3-yl)methyl)amino)-1-oxopropan-2-yl)-1-ethyl-4-phenylpiperidine-2-carboxamide], the Ki in experiment [3] (read-out: MASP-2 Ki) was under 500 nM; in experiment [4] (read-out: mMASP-2 Ki), 500 to 2500 nM; in experiment [1] (read-out: Thrombin Ki) it was over 25 µM.

In the case of `Cc1nc(N)ccc1CNC(=O)[C@H](C)N(C)C(=O)[C@H]1C[C@H](Cc2ccc(Br)cc2)CN1` [compound 1497, (2R,4S)—N—((S)-1-(((6-Amino-2-methylpyridin-3-yl)methyl)amino)-1-oxopropan-2-yl)-4-(4-bromobenzyl)-N-methylpyrrolidine-2-carboxamide Di-trifluoroacetate salt], the Ki in experiment [3] (read-out: MASP-2 Ki) is under 500 nM; in experiment [4] (read-out: mMASP-2 Ki) it was 2500 to 10000 nM; in experiment [1] (Thrombin Ki (μM)), 2.5 to 10 µM. Moreover, in experiment [3], the “MASP-2 vs. thrombin selectivity” value was “** (≥5.0 to <25-fold)”.
